Series [1] can be described thus: Singlet oxygen generation (SOSG fluorescence) under 670 nm laser. The conditions noted are these: PBS with 1% Tween 20, 5 μM based on Ce6, 670 nm 50 mW/cm2, 0-120 s. The series is classed as physicochemical. The protocol: All three solutions contained 1 μM SOSG. The fluorescence intensity of SOSG (Ex(excitation)/Em(emission): 504 nm/525 nm) was measured by irradiating a laser (670 nm, 50 mW/cm^2) every 30 seconds from 0 to 120 seconds.

A short description of series [2]: Skin phototoxicity after intravenous injection and 670 nm laser. In kind it is in vivo, Balb/c mice. The settings on record: 2 mg/kg (equiv. of Ce6) iv, 670 nm 50 mW/cm2 5 min 1 h after injection; 2nd and 3rd days. On the procedure:
One hour after injection, a near-infrared (670 nm) laser (50 mW/cm^2) was irradiated for 5 minutes.

The source of these data is patent US20230210888A1, “PHOTOTHERANOSTIC NANOAGENTS WITH EXCELLENT ATHEROSCLEROTIC PLAQUE-TARGETING AND PLAQUE-PENETRATING PROPERTIES, AND USE THEREOF” (Korea University Research and Business Foundation, priority 2021, published 2023).

On to “(17S,18S)-18-(2-carboxyethyl)-20-(carboxymethyl)-12-ethenyl-7-ethyl-3,8,13,17-tetramethyl-17,18,22,23-tetrahydroporphyrin-2-carboxylic acid [Ce6]”, for which the “SOSG fluorescence intensity (singlet oxygen generation)” value in series [1] is recorded as “tendency to increase similarly to each other”. The “skin phototoxicity (erythema)” value in series [2] is on record as “erythema occurred”.
